Experimental findings from US8673894B2 (Hoffmann-La Roche Inc., priority 2010, dated 2014) are described below.

Assay [1] deals with T1, endogenous cellular BACE2 (Rattus norvegicus, UniProt Q6IE75).
T1 construct: endogenous cellular BACE2 in the Ins1e rat cell line; endogenous in cells; host or cells: INS-TMEM27 (INS1e-derived rat insulinoma cell line with doxycycline-inducible full-length human TMEM27)
T1 sequence (Q6IE75 63-514): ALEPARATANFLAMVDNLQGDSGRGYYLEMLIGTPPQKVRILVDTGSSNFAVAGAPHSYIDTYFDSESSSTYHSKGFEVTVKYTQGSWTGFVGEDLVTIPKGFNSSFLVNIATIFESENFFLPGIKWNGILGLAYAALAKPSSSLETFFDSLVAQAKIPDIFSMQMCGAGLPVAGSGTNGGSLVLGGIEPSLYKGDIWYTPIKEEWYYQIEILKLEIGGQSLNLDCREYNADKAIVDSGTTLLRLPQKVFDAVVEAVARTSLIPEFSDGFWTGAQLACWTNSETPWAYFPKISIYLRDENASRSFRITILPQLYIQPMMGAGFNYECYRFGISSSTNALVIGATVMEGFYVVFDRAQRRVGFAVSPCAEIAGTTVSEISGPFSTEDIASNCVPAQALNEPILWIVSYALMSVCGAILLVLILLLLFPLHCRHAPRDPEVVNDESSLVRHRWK
Description: Assay for BACE inhibition by measuring cellular TMEM27 cleavage. Format: cell-based. Particulars: INS-TMEM27 (INS1e-derived) cells, shed human TMEM27 in supernatant by ELISA. The source says: Assay for BACE Inhibition by Measuring Cellular TMEM27 Cleavage:
The assay uses the principle of inhibition of human TMEM27 cleavage by endogenous cellular BACE2 in the Ins1e rat cell line and shedding from the cell surface into the culture medium, followed by detection in an ELISA assay. Inhibition of BACE2 prevents the cleavage and shedding in a dose-dependent manner.
The stable cell line “INS-TMEM27” represents an INS1e-derived cell line with inducible expression (using the TetOn system) of full-length hTMEM27 in a doxycycline-dependent manner. The cells are cultured throughout the experiment in RPMI1640+ Glutamax (Invitrogen) Penicillin/Streptomycin, 10% Fetal bovine serum, […], […], 100 micrograms/ml G418 and 100 microgram/ml hygromycin and are grown inadherent culture at 37° C. in a standard CO2 cell culture incubator.
INS-TMEM27 cells are seeded in 96-well plates. After 2 days in culture, BACE2 inhibitor is added in a range of concentrations as required by the assay and after a further two hours, doxycycline is added to a final concentration of 500 ng/ml. The cells are incubated for a further 46 hours and the supernatant harvested for detection of shed TMEM27.
An ELISA assay (using a pair of mouse anti-human-TMEM27 antibodies, raised against the extracellular domain of TMEM27) is used for detection of TMEM27 in the culture medium. An EC50 for BACE2 inhibition is calculated using the ELISA readout for each inhibitor concentration with standard curve-fitting software such as XLFit for the Excel spreadsheet program.

The next assay relates to Aβ40. As to the kind of experiment: Cellular Aβ-lowering assay. Format: cell-based. Particulars: HEK293 cells stably expressing human APP695, Aβ40 in supernatant by ELISA after 18-20 hrs; read-out: Cellular assay Abeta40 IC50. How it is done: Cellular Aβ-Lowering Assay:
Human HEK293 cells which are stably transfected with a vector expressing a cDNA of the human APP wt gene (APP695) were used to assess the potency of the compounds in a cellular assay. The cells were seeded in 96-well microtiter plates in cell culture medium (Iscove, plus 10% (v/v) fetal bovine serum, glutamine, penicillin/streptomycin) to about 80% confluence and the compounds were added at a 10× concentration in 1/10 volume of medium without FCS containing 8% DMSO (final concentration of DMSO was kept at 0.8% v/v). After 18-20 hrs incubation at 37° C. and 5% CO2 in a humidified incubator the culture supernatant was harvested for the determination of Aβ40 concentrations. 96well ELISA plates (e.g., Nunc MaxiSorb) were coated with monoclonal antibody which specifically recognize the C-terminal end of Aβ40 (Brockhaus et al., NeuroReport 9, 1481-1486; 1998). After blocking of non-specific binding sites with e.g. 1% BSA and washing, the culture supernatants were added in suitable dilutions together with a horseradish peroxidase-coupled Aβ detection antibody (e.g., antibody 4G8, Senetek, Maryland Heights, Mo.) and incubated for 5 to 7 hrs. Subsequently the wells of the microtiter plate were washed extensively with Tris-buffered saline containing 0.05% Tween 20 and the assay was developed with tetramethylbenzidine/H2O2 in citric acid buffer. After stopping the reaction with one volume 1 N H2SO4 the reaction was measured in an ELISA reader at 450 nm wavelength. The concentrations of Aβ in the culture supernatants were calculated from a standard curve obtained with known amounts of pure Aβ peptide.

SMILES strings stand for the structures. Structures can show the parent of a compound that is named as a salt.

The IC50 is the concentration that inhibits the measured activity by half. As for `CC1(C)OCC(N)=N[C@](C)(c2cc(NC(=O)c3ccc(Cl)cn3)c(F)cc2F)C1(F)F` [Example 118, (R)-N-(5-(3-amino-6,6-difluoro-5,7,7-trimethyl-2,5,6,7-tetrahydro-1,4-oxazepin-5-yl)-2,4difluorophenyl)-5-chloropicolinamide], the concentration for half-maximal inhibition (IC50) turned out to be 14800 nM in assay [1] and 340 nM in the assay with Aβ40.

`C[C@]1(c2cc(NC(=O)c3cnc(OCC(F)F)cn3)ccc2F)N=C(N)COCC1(F)F` [Example 74, (R)-N-(3-(3-Amino-6,6-difluoro-5-methyl-2,5,6,7-tetrahydro-1,4-oxazepin-5-yl)-4-fluorophenyl)-5-(2,2-difluoroethoxy)pyrazine-2-carboxamide formate]: the results for the IC50 (in assay [1]; in the assay on Aβ40) were 3380 nM and 10 nM, respectively.

Consider `CC[C@@]1(c2cc(NC(=O)c3ccc(Cl)cn3)ccc2F)CCOCC(N)=N1` [Example 14, 5-Chloro-pyridine-2-carboxylic acid [3-((S)-3-amino-5-ethyl-2,5,6,7-tetrahydro-[1,4]oxazepin-5-yl)-4-fluoro-phenyl]-amide], for which the concentration for half-maximal inhibition (IC50) in assay [1] amounted to 69.5 nM; with Aβ40 it was 93 nM.

Regarding `CC[C@]1(c2cc(NC(=O)c3ccccn3)ccc2F)N=C(N)COCC1(F)F` [Example 75, (R)-N-(3-(3-amino-5-ethyl-6,6-difluoro-2,5,6,7-tetrahydro-1,4-oxazepin-5-yl)-4-fluorophenyl)picolinamide], the half-inhibitory concentration (IC50) is 89.8 nM in assay [1] and 410 nM with Aβ40.

With `C[C@@]1(c2cc(NC(=O)c3ccc(C#N)cn3)ccc2F)COCCC(N)=N1` [Example 53, 5-Cyano-pyridine-2-carboxylic acid [3-((R)-5-amino-3-methyl-2,3,6,7-tetrahydro-[1,4]oxazepin-3-yl)-4-fluoro-phenyl]-amide], the IC50 came out at 41 nM in assay [1] and 10 nM in the assay with Aβ40.

`C[C@@]1(c2cc(NC(=O)c3ncc(C(F)(F)F)cc3Cl)ccc2F)COCCC(N)=N1` [Example 52, 3-Chloro-5-trifluoromethyl-pyridine-2-carboxylic acid [3-((R)-5-amino-3-methyl-2,3,6,7-tetrahydro-[1,4]oxazepin-3-yl)-4-fluoro-phenyl]-amide]: the IC50 in assay [1] is 120 nM; in the assay with Aβ40, 49 nM.

With `C[C@]1(c2cc(NC(=O)c3ccc(OCF)cn3)ccc2F)N=C(N)COCC1(F)F` [Example 70, (R)-N-(3-(3-Amino-6,6-difluoro-5-methyl-2,5,6,7-tetrahydro-1,4-oxazepin-5-yl)-4-fluorophenyl)-5-(fluoromethoxy)picolinamide formate], the values for the 50% inhibitory concentration (IC50) (in assay [1]; with Aβ40) were 172 nM and 5.2 nM, respectively.

Regarding `C[C@]1(c2cc(NC(=O)c3ccc(C#N)cn3)ccc2F)N=C(N)COC[C@@H]1F` [Example 63, N-(3-((5R,6R)-3-amino-6-fluoro-5-methyl-2,5,6,7-tetrahydro-1,4-oxazepin-5-yl)-4-fluorophenyl)-5-cyanopicolinamide], the figures for the IC50 (in assay [1]; in the assay with Aβ40) were 91 nM and 0.3 nM, respectively.

For the molecule `CCn1cc(Cl)c(C(=O)Nc2ccc(F)c([C@@]3(CC)N=C(N)COCC3(F)F)c2)n1` [Example 91, (R)-N-(3-(3-Amino-5-ethyl-6,6-difluoro-2,5,6,7-tetrahydro-1,4-oxazepin-5-yl)-4-fluorophenyl)-4-chloro-1-ethyl-1H-pyrazole-3-carboxamide], the half-maximal inhibitory concentration (IC50) in assay [1] amounted to 453 nM; in the assay with Aβ40, 1230 nM.

For the molecule `C[C@]1(c2cc(NC(=O)c3ccccn3)ccc2F)N=C(N)COCC1(F)F` [Example 35, (R)-N-(3-(3-amino-6,6-difluoro-5-methyl-2,5,6,7-tetrahydro-1,4-oxazepin-5-yl)-4-fluorophenyl)picolinamide formate], the results for the IC50 (in assay [1]; with Aβ40) were 29 nM and 14 nM, respectively.

Regarding `CC1(C)C[C@@](C)(c2cc(NC(=O)c3ncc(C(F)(F)F)cc3Cl)ccc2F)N=C(N)CO1` [Example 21, 3-Chloro-5-trifluoromethyl-pyridine-2-carboxylic acid [3-((S)-3-amino-5,7,7-trimethyl-2,5,6,7-tetrahydro-[1,4]oxazepin-5-yl)-4-fluoro-phenyl]-amide], the values for the half-maximal inhibitory concentration (IC50) (in assay [1]; in the assay with Aβ40) were 8.7 nM and 3.2 nM, respectively.

For the molecule `CC1(C)OCC(N)=N[C@](C)(c2cc(NC(=O)c3ccc(Cl)cn3)ccc2F)C1(F)F` [Example 110, (R)-N-(3-(3-amino-6,6-difluoro-5,7,7-trimethyl-2,5,6,7-tetrahydro-1,4-oxazepin-5-yl)-4-fluorophenyl)-5-chloropicolinamide], the concentration for half-maximal inhibition (IC50) in assay [1] turned out to be 9.03 nM; in the assay with Aβ40, 0.8 nM.

For the molecule `C[C@]1(c2cc(NC(=O)c3ncccc3C(F)(F)F)ccc2F)N=C(N)COCC1(F)F` [Example 37, (R)-N-(3-(3-amino-6,6-difluoro-5-methyl-2,5,6,7-tetrahydro-1,4-oxazepin-5-yl)-4-fluorophenyl)-3-(trifluoromethyl)picolinamide formate], the results for the IC50 (in assay [1]; in the assay on Aβ40) were 25 nM and 54 nM, respectively.

For the molecule `C[C@@]1(c2cc(NC(=O)c3ncc(C(F)(F)F)cc3Cl)ccc2F)CCOCC(N)=N1` [Example 16, 3-Chloro-5-trifluoromethyl-pyridine-2-carboxylic acid [3-((S)-3-amino-5-methyl-2,5,6,7-tetrahydro-[1,4]oxazepin-5-yl)-4-fluoro-phenyl]-amide], the 50% inhibitory concentration (IC50) was found to be 13.5 nM in assay [1] and 14 nM in the assay on Aβ40.

As to `Cc1nc(C(=O)Nc2ccc(F)c([C@@]3(C)N=C(N)COCC3(F)F)c2)co1` [Example 42, (R)-N-(3-(3-amino-6,6-difluoro-5-methyl-2,5,6,7-tetrahydro-1,4-oxazepin-5-yl)-4-fluorophenyl)-2-methyloxazole-4-carboxamide formate], the figures for the concentration for half-maximal inhibition (IC50) (in assay [1]; in the assay with Aβ40) were 2.4 nM and 7.4 nM, respectively.

Consider `CC[C@]1(c2cc(NC(=O)c3ccc(Cl)cn3)ccc2F)N=C(N)COCC1(F)F` [Example 82, (R)-N-(3-(3-Amino-5-ethyl-6,6-difluoro-2,5,6,7-tetrahydro-1,4-oxazepin-5-yl)-4-fluorophenyl)-5-chloropicolinamide], for which the figures for the IC50 (in assay [1]; in the assay on Aβ40) were 36.2 nM and 40 nM, respectively.

For the molecule `Cc1cc(Cl)cnc1C(=O)Nc1ccc(F)c([C@@]2(C)N=C(N)COCC2(F)F)c1` [Example 31, (R)-N-(3-(3-amino-6,6-difluoro-5-methyl-2,5,6,7-tetrahydro-1,4-oxazepin-5-yl)-4-fluorophenyl)-5-chloro-3-methylpicolinamide formate], the IC50 in assay [1] came out at 2.6 nM; with Aβ40, 1 nM.

For `C[C@@]1(c2cc(NC(=O)C3(C(F)(F)F)CCC3)ccc2F)CCOCC(N)=N1` [Example 24, 1-Trifluoromethyl-cyclobutanecarboxylic acid [3-((S)-3-amino-5-methyl-2,5,6,7-tetrahydro-[1,4]oxazepin-5-yl)-4-fluoro-phenyl]-amide], the values for the IC50 (in assay [1]; with Aβ40) were 28 nM and 5870 nM, respectively.

As for `C[C@]1(c2cc(NC(=O)c3ncccc3Cl)ccc2F)N=C(N)COCC1(F)F` [Example 36, (R)-N-(3-(3-amino-6,6-difluoro-5-methyl-2,5,6,7-tetrahydro-1,4-oxazepin-5-yl)-4-fluorophenyl)-3-chloropicolinamide formate], the IC50 in assay [1] came to 8.4 nM; with Aβ40, 38 nM.
